The text below walks through data of PMC10142505, “Synthesis, Evaluation of Enzyme Inhibition and Redox Properties of Potential Dual COX-2 and 5-LOX Inhibitors” (Pharmaceuticals, 2023).

The test system of one data set is human serum pool. In words: Redox activity (oxy score from TOS, PAB, TAS, SHG) in vitro in human serum pool. Particulars: 37 °C, median (interquartile range); for Oxy score (OS), 2 h incubation, TBH added / Oxy score (OS), 24 h incubation, TBH added: with TBH added; for Oxy score (OS), 2 h incubation / Oxy score (OS), 24 h incubation: without TBH; for Oxy score (OS), 2 h incubation: average of five concentrations. On the procedure: The remains of the serum samples were taken from healthy subjects after biochemical analysis; these subjects participated in regular medical examinations at the Military Medical Academy in Belgrade and consented to the formation of a serum pool. Neither the patients’ data nor their identities were used. Serum pool samples were prepared and aliquoted (450 µL portions) according to the routine procedure for in-house controle samples and preserved at the -80 °C until analysis. Five serial dilutions of the tested compounds (concentrations: 1000 µM, 500 µM, 250 µM, 125 µM and 62.5 µM) were added alone (50 µL) or in combination (25 µL) with oxidant TBH (25 µM) into 450 µL of serum. The compounds were dissolved in dimethyl sulfoxide (DMSO) for stock solution (1000 µM), while a PBS buffer (phosphate buffered saline) pH = 7.4 was used for serial dilutions (500 µM, 250 µM, 125 µM and 62.5 µM). Deionized water was used as a blank. DMSO and buffer pH = 7.4 were used as a control, while trolox solution (2 mmol/L) was used as a standard. All samples were incubated in duplicate for 2 h and 24 h at 37 °C.
Oxidative stress parameters (total antioxidative status (TAS), total oxidative status (TOS), total concentration of sulfhydryl group (SHG) and prooxidative–antioxidative balance (PAB)) were determined in order to calculate prooxidative score, antioxidative score and oxy score (OS). These parameters were determined in serum.
Total antioxidative status (TAS) was measured using Erel’s method, which was further optimized by Kotur-Stevuljevic et al. in 2015 [34]. ABTS (2,2-azino-bis(3-ethyl-benzthiazoline-6-sulfonic acid) is oxidized to a green-colored ABTS^+ cation by hydrogen peroxide in the acetate buffer (pH = 3.6). This stable cation is chromogen, and the presence of antioxidants in the samples causes its discoloration proportional to their concentrations. The absorbance was measured using a SPECTROstar Nano Microplate Reader (BMG Labtech, Ortenberg, Germany). The reaction was calibrated with Trolox and the TAS values are expressed as mmol trolox equivalent/L.
Total oxidative status (TOS) was measured using Erel’s method. Here, a ferrous ion-o-dianisidine complex is oxidized to ferric ion by the oxidants present in the sample. The ferric ion forms a colored complex with xylenol orange in an acidic environment and in the presence of glycerol. The intensity of the color of the formed complex is proportional to the total contents of oxidants in the sample. The absorbance was measured at 560 nm using a SPECTROstar Nano Microplate Reader (BMG Labtech, Ortenberg, Germany). The reaction was calibrated with hydrogen peroxide and the TOS values are expressed as µmol H2O2 equivalent/L.
Prooxidant–antioxidant balance (PAB) was measured according to procedures in the literature. Here, hydrogen peroxide is determined in the presence of antioxidants in the sample. Both of them (hydrogen peroxide and antioxidants (including uric acid)) react with chromogen TMB (3,3′,5,5′-tetramethylbenzidine) simultaneously. The hydrogen peroxide and chromogen reaction is enzymatically catalyzed with peroxidase, while the antioxidants–chromogen reaction is non-enzymatic. The intense blue color, produced as a result of the reaction between hydrogen peroxide and TMB, is decolorized by the reaction of the antioxidant with the TMB. The resulting color (result of two competitive reactions) is proportional to the ratio of antioxidants to prooxidants. The absorbance was measured at 450 nm. Different ratios of hydrogen peroxide and uric acid solutions were used to make a standard curve. The PAB results are expressed in hydrogen peroxide concentrations.
Total Sulfydryl Groups Content (SHG) was measured using a modified version of Ellman’s method. This method is based on the reaction between DTNB ([…]) and aliphatic thiol compounds in an alkaline environment (pH = 9.0). […]

Each structure is given as a SMILES string. Marks after values point to notes of the source that are not given here.

In the case of `COc1ccc2c(c1)c(CNC(=O)NO)c(C)n2C(=O)c1ccc(Cl)cc1` [Compound 1, N’-hydroxy-N-[(1-(4-chlorobenzoyl)-5-methoxy-2-methyl-3-indolyl)methyl]urea], in the data set on human serum pool, the “Oxy score (OS), 2 h incubation, TBH added” value is given as 6.44 (5.51–7.02); the “Oxy score (OS), 2 h incubation” value is on record as −0.43 (−1.27–3.13); the “Oxy score (OS), 24 h incubation, TBH added” value was 5.46 (4.96–6.20); the “Oxy score (OS), 24 h incubation” value is 0.71 (0.51–0.80).

Turning to `CC(NC(=O)NO)c1ccc(-c2ccccc2)c(F)c1` (stereo not shown) [Compound 2], in the data set with human serum pool, the “Oxy score (OS), 2 h incubation, TBH added” value was 5.20 (3.70–5.42); the “Oxy score (OS), 2 h incubation” value is on record as 3.28 (−0.68–16.66); the “Oxy score (OS), 24 h incubation, TBH added” value is 6.79 (4.37–7.90); the “Oxy score (OS), 24 h incubation” value is listed as 0.33 (−0.07–0.85).

Take `O=C(NO)NCc1ccccc1Nc1c(Cl)cccc1Cl` [Compound 3, N’-hydroxy-N-[(2-(2,6-dichloroanilino)phenyl)methyl]urea]: in the data set with human serum pool, the “Oxy score (OS), 2 h incubation, TBH added” value was 5.81 (4.64–7.25); the “Oxy score (OS), 2 h incubation” value was 1.58 (−0.38–3.45); the “Oxy score (OS), 24 h incubation, TBH added” value is 1.93 (0.65–5.02) ^#; the “Oxy score (OS), 24 h incubation” value was 1.31 (−0.31–1.75).

As for `COC(=O)C(Cc1c[nH]cn1)NC(=O)c1cc(C(C)(C)C)c(O)c(C(C)(C)C)c1` (stereo not shown) [Compound 4, 2-(3,5-di-tert-butyl-4-hydroxy-benzoylamino)-3-(1H-imidazol-4-yl)-propionic acid methyl ester], the melting point was in the range of 117 to 119 °C. Further, in the data set with human serum pool, the “Oxy score (OS), 2 h incubation, TBH added” value is given as 3.68 (3.36–8.40); the “Oxy score (OS), 2 h incubation” value is 0.24 (−0.24–0.89); the “Oxy score (OS), 24 h incubation, TBH added” value was 7.86 (7.20–10.68); the “Oxy score (OS), 24 h incubation” value was 3.00 (1.99–3.93) **.

Regarding `COC(=O)CNC(=O)c1cc(C(C)(C)C)c(O)c(C(C)(C)C)c1` [Compound 5, (3,5-di-tert-butyl-4-hydroxy-benzoylamino)-acetic acid methyl ester], the melting point lay within 130 to 132 °C. For the same molecule, in the data set with human serum pool, the “Oxy score (OS), 2 h incubation, TBH added” value is given as 2.83 (2.55–3.39); the “Oxy score (OS), 2 h incubation” value was 0.29 (−0.30–1.23); the “Oxy score (OS), 24 h incubation, TBH added” value was 5.64 (5.07–6.47); the “Oxy score (OS), 24 h incubation” value is 2.14 (1.37–2.62) **.

`C=CCNC(=O)c1cc(C(C)(C)C)c(O)c(C(C)(C)C)c1` [Compound 6, N-allyl-3,5-di-tert-butyl-4-hydroxy-benzamide] had a melting point of 182 to 183.5 °C. Besides, in the data set on human serum pool, the “Oxy score (OS), 2 h incubation, TBH added” value is given as 3.77 (3.37–4.20); the “Oxy score (OS), 2 h incubation” value is 0.52 (0.08–1.52); the “Oxy score (OS), 24 h incubation, TBH added” value is 6.07 (4.34–7.02); the “Oxy score (OS), 24 h incubation” value is listed as 3.09 (2.50–3.67).

Molecule `C#CCNC(=O)c1cc(C(C)(C)C)c(O)c(C(C)(C)C)c1` [Compound 7, 3,5-di-tert-butyl-4-hydroxy-N-prop-2-ynyl-benzamide] gave a melting point of 178.5 to 180 °C. Besides, in the data set with human serum pool, the “Oxy score (OS), 2 h incubation, TBH added” value is given as 6.62 (6.42–6.98); the “Oxy score (OS), 2 h incubation” value is listed as 3.12 (2.21–3.47); the “Oxy score (OS), 24 h incubation, TBH added” value is 10.54 (4.45–27.42); the “Oxy score (OS), 24 h incubation” value is reported as 2.55 (2.18–2.92).

As for `CCOc1ccccc1NC(=O)N(C)C` [Compound 8, 3-(2-ethoxy-phenyl)-1,1-dimethyl-urea], the melting point is 71.5 to 72.5 °C. In the data set on human serum pool, the “Oxy score (OS), 2 h incubation, TBH added” value is on record as 8.43 (5.76–13.81); the “Oxy score (OS), 2 h incubation” value is recorded as 0.03 (−0.96–1.46); the “Oxy score (OS), 24 h incubation, TBH added” value is −0.55 (−0.67–1.48) ^##; the “Oxy score (OS), 24 h incubation” value was −0.52 (−1.24–3.03).

`CN(C)C(=O)Nc1ccccc1C(=O)O` [Compound 9, 2-(3,3-dimethyl-ureido)-benzoic acid] registered a melting point of 158 to 159.5 °C. In the data set on human serum pool, the “Oxy score (OS), 2 h incubation, TBH added” value is on record as 5.97 (4.06–8.25); the “Oxy score (OS), 2 h incubation” value is recorded as 0.09 (−0.79–1.80); the “Oxy score (OS), 24 h incubation, TBH added” value is reported as −0.19 (−0.68–1.56); the “Oxy score (OS), 24 h incubation” value is given as −0.18 (−1.55–2.91).

`CCOc1ccccc1NC(=O)Nc1ccc([N+](=O)[O-])cc1` [Compound 10, 1-(2-ethoxy-phenyl)-3-(4-nitro-phenyl)-urea] gave a melting point of 178 to 181 °C. In the data set on human serum pool, the “Oxy score (OS), 2 h incubation, TBH added” value is recorded as 6.34 (5.07–22.02); the “Oxy score (OS), 24 h incubation, TBH added” value is given as 0.97 (−0.04–4.08); the “Oxy score (OS), 24 h incubation” value is reported as −0.97 (−1.53–3.85).

Regarding `CC(=O)N(O)C(C)c1ccc(CC(C)C)cc1` (stereo not shown) [Compound 11], in the data set with human serum pool, the “Oxy score (OS), 2 h incubation, TBH added” value was 5.15 (4.76–6.74); the “Oxy score (OS), 2 h incubation” value is on record as −0.22 (−0.65–0.82); the “Oxy score (OS), 24 h incubation, TBH added” value is listed as 3.18 (2.92–3.60) ^##; the “Oxy score (OS), 24 h incubation” value is on record as 1.83 (1.49–2.18) *.

In the case of `COc1ccc2cc(C(C)N(O)C(C)=O)ccc2c1` (stereo not shown) [Compound 12, N-hydroxy-N-[1-(6-methoxy-naphthalen-2-yl)-ethyl]-acetamide], in the data set with human serum pool, the “Oxy score (OS), 2 h incubation, TBH added” value is on record as 4.79 (4.25–5.43); the “Oxy score (OS), 2 h incubation” value is recorded as 0.24 (−0.06–0.58); the “Oxy score (OS), 24 h incubation, TBH added” value is recorded as 3.97 (3.44–6.33); the “Oxy score (OS), 24 h incubation” value is given as 2.49 (2.03–2.66) **.

With `CC(C)(C)c1cc(C=C2SC(=S)N(N)C2=O)cc(C(C)(C)C)c1O` [Compound 13, 3-amino-5-(3,5-di-tert-butyl-4-hydroxy-benzylidene)-2-thioxo-thiazolidin-4-one], the melting point was in the range of 244.5 to 246.5 °C. Moreover, in the data set with human serum pool, the “Oxy score (OS), 2 h incubation, TBH added” value is on record as 5.89 (5.63–6.14); the “Oxy score (OS), 2 h incubation” value is on record as 0.75 (0.56–0.94); the “Oxy score (OS), 24 h incubation” value was 0.64 (0.19–1.01).

In general, melting point refers to the temperature of the solid-liquid transition.
